Source: patent US9149038B2, “4-amino-6-(heterocyclic)picolinates and 6-amino-2-(heterocyclic)pyrimidine-4-carboxylates and their use as herbicides” (Dow AgroSciences LLC, priority 2013, dated 2015)
Read-outs that look alike come from different tables or passages of the source.

Columns and labels:
[1] = tested on: Key Broadleaf Weed and Crop Species; test: Post-Emergent Test II: postemergent herbicidal activity, visual rating after 14 d (Table 7); type: in vivo; details: post-emergence, 336 h; for pest or weed control at 35 g/ha: 35 g ai/ha; for pest or weed control at 70 g/ha: 70 g ai/ha; for pest or weed control at 140 g/ha: 140 g ai/ha
How it was run: (§1)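 Plants were raised in a greenhouse for 7-21 d and treated once at the first or second true leaf stage. Compounds, dissolved in 97:3 acetone:DMSO then diluted into an aqueous acetone/isopropanol/crop oil/Triton X-155 carrier, were applied by overhead track sprayer at 187 L/ha. After 14 d with subirrigation, injury was scored visually from 0 (none) to 100 (complete kill).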

[2] = tested on: Key Grass and Sedge Weeds as well as Grass Crops; test: Post-Emergent Test II: postemergent herbicidal activity, visual rating after 14 d (Table 8); type: in vivo; details: post-emergence, 336 h; for pest or weed control at 35 g/ha: 35 g ai/ha; for pest or weed control at 70 g/ha: 70 g ai/ha; for pest or weed control at 140 g/ha: 140 g ai/ha
How it was run: as §1

[3] = lambsquarters (Chenopodium album), read-out: Visual Growth Reduction (%) 14 Days After Application CHEAL
[4] = oilseed rape, canola (Brassica napus), read-out: Visual Growth Reduction (%) 14 Days After Application BRSNN
[5] = sunflower (Helianthus annuus), read-out: Visual Growth Reduction (%) 14 Days After Application HELAN
[6] = velvetleaf (Abutilon theophrasti), read-out: Visual Growth Reduction (%) 14 Days After Application ABUTH
[7] = wild poinsettia (Euphorbia heterophylla), read-out: Visual Growth Reduction (%) 14 Days After Application EPHHL
[8] = barnyardgrass (Echinochloa crus-galli), read-out: Visual Growth Reduction (%) 14 Days After Application ECHCG
[9] = giant foxtail (Setaria faberi), read-out: Visual Growth Reduction (%) 14 Days After Application SETFA
[10] = maize, corn (Zea mays), read-out: Visual Growth Reduction (%) 14 Days After Application ZEAMX
[11] = rice (Oryza sativa), read-out: Visual Growth Reduction (%) 14 Days After Application ORYSA
[12] = wheat, spring (Triticum aestivum), read-out: Visual Growth Reduction (%) 14 Days After Application TRZAS
[13] = yellow nutsedge (Cyperus esculentus), read-out: Visual Growth Reduction (%) 14 Days After Application CYPES
[14] = redroot pigweed (Amaranthus retroflexus), read-out: Visual Growth Reduction (%) 14 Days After Application AMARE

For `Nc1c(F)c(-c2ccc3c(c2F)OC(F)(F)O3)nc(C(=O)O)c1Cl` [Compound 11], the pest or weed control at 35 g/ha [1, 3] was 95 to 100%, the pest or weed control at 70 g/ha [1, 3] was 95 to 100% and the pest or weed control at 140 g/ha [1, 3] was 95 to 100%. It also gave a pest or weed control at 35 g/ha [1, 4] of 85 to 94%, a pest or weed control at 70 g/ha [1, 4] of 85 to 94% and a pest or weed control at 140 g/ha [1, 4] of 85 to 94%. It also gave a pest or weed control at 35 g/ha [1, 5] of 95 to 100%, a pest or weed control at 70 g/ha [1, 5] of 95 to 100% and a pest or weed control at 140 g/ha [1, 5] of 95 to 100%. It also gave a pest or weed control at 35 g/ha [1, 6] of 85 to 94%, a pest or weed control at 70 g/ha [1, 6] of 85 to 94% and a pest or weed control at 140 g/ha [1, 6] of 95 to 100%. It also gave a pest or weed control at 35 g/ha [1, 7] of 95 to 100%, a pest or weed control at 70 g/ha [1, 7] of 95 to 100% and a pest or weed control at 140 g/ha [1, 7] of 95 to 100%. For the same compound, the pest or weed control at 35 g/ha [2, 8] was 85 to 94%, the pest or weed control at 70 g/ha [2, 8] was 95 to 100% and the pest or weed control at 140 g/ha [2, 8] was 95 to 100%. It also gave a pest or weed control at 35 g/ha [2, 9] of 75 to 84%, a pest or weed control at 70 g/ha [2, 9] of 85 to 94% and a pest or weed control at 140 g/ha [2, 9] of 95 to 100%. It also gave a pest or weed control at 35 g/ha [2, 10] of 60 to 74%, a pest or weed control at 70 g/ha [2, 10] of 60 to 74% and a pest or weed control at 140 g/ha [2, 10] of 75 to 84%. The pest or weed control at 35 g/ha [2, 11] was 0 to 29%, the pest or weed control at 70 g/ha [2, 11] was 0 to 29% and the pest or weed control at 140 g/ha [2, 11] was 30 to 44%. The pest or weed control at 35 g/ha [2, 12] was 60 to 74%, the pest or weed control at 70 g/ha [2, 12] was 60 to 74% and the pest or weed control at 140 g/ha [2, 12] was 75 to 84%. It also gave a pest or weed control at 35 g/ha [2, 13] of 0 to 29%, a pest or weed control at 70 g/ha [2, 13] of 95 to 100% and a pest or weed control at 140 g/ha [2, 13] of 95 to 100%.

`Nc1c(F)c(-c2ccc(I)c3c2OC(F)(F)O3)nc(C(=O)O)c1Cl` [Compound 81] was tested, and the pest or weed control at 35 g/ha [1, 3] was 85 to 94%, the pest or weed control at 70 g/ha [1, 3] was 85 to 94% and the pest or weed control at 140 g/ha [1, 3] was 85 to 94%. It also gave a pest or weed control at 35 g/ha [1, 4] of 75 to 84%, a pest or weed control at 70 g/ha [1, 4] of 85 to 94% and a pest or weed control at 140 g/ha [1, 4] of 95 to 100%. The pest or weed control at 35 g/ha [1, 14] was 95 to 100%, the pest or weed control at 70 g/ha [1, 14] was 95 to 100% and the pest or weed control at 140 g/ha [1, 14] was 95 to 100%. The pest or weed control at 35 g/ha [1, 5] was 85 to 94%, the pest or weed control at 70 g/ha [1, 5] was 85 to 94% and the pest or weed control at 140 g/ha [1, 5] was 85 to 94%. The pest or weed control at 35 g/ha [1, 6] was 0 to 29%, the pest or weed control at 70 g/ha [1, 6] was 60 to 74% and the pest or weed control at 140 g/ha [1, 6] was 75 to 84%. For the same compound, the pest or weed control at 35 g/ha [1, 7] was 0 to 29%, the pest or weed control at 70 g/ha [1, 7] was 0 to 29% and the pest or weed control at 140 g/ha [1, 7] was 0 to 29%. It also gave a pest or weed control at 35 g/ha [2, 8] of 0 to 29%, a pest or weed control at 70 g/ha [2, 8] of 0 to 29% and a pest or weed control at 140 g/ha [2, 8] of 0 to 29%. For the same compound, the pest or weed control at 35 g/ha [2, 9] was 0 to 29%, the pest or weed control at 70 g/ha [2, 9] was 0 to 29% and the pest or weed control at 140 g/ha [2, 9] was 0 to 29%. It also gave a pest or weed control at 35 g/ha [2, 10] of 0 to 29%, a pest or weed control at 70 g/ha [2, 10] of 0 to 29% and a pest or weed control at 140 g/ha [2, 10] of 0 to 29%. For the same compound, the pest or weed control at 35 g/ha [2, 11] was 0 to 29%, the pest or weed control at 70 g/ha [2, 11] was 0 to 29% and the pest or weed control at 140 g/ha [2, 11] was 0 to 29%. For the same compound, the pest or weed control at 35 g/ha [2, 12] was 0 to 29%, the pest or weed control at 70 g/ha [2, 12] was 0 to 29% and the pest or weed control at 140 g/ha [2, 12] was 0 to 29%. The pest or weed control at 35 g/ha [2, 13] was 0 to 29%, the pest or weed control at 70 g/ha [2, 13] was 0 to 29% and the pest or weed control at 140 g/ha [2, 13] was 0 to 29%.
